From BindingDB's records for doi:10.1021/acs.jmedchem.1c00049 (Genentech, 2021)

Columns and labels:
[1] = Displacement of [3H]GX-545 Nav1.7 (unknown origin) expressed in HEK cells by liquid scintillation counting based radioligand competition assay
[2] = Inhibition of human Nav1.7 expressed in HEK293 cells incubated for 1 hr in presence of veratridine by sodium influx assay

| SMILES | IC50 [1] [nM] | IC50 [2] [nM] |
| --- | --- | --- |
| O=C(NS(=O)(=O)C1COC1)c1cc(C2CC2)c(OCC23CC4CC(CC(C4)C2)C3)cc1F | 4 | 38 |
| CS(=O)(=O)NC(=O)c1cc(C2CC2)c(OCC2CCN(C(c3ccccc3)c3ccccc3)CC2)cc1F | 3.6 | 66 |
| CS(=O)(=O)NC(=O)c1cc(C2CC2)c(OCC2CCN(Cc3ccccc3)CC2)cc1F | 140 | 3200 |
| O=C(NS(=O)(=O)C1CC1)c1cc(C2CC2)c(OCC23CC4CC(CC(C4)C2)C3)cc1F [US8952169, 148] | 1.1 | 14 |
| O=C(NS(=O)(=O)N1CCCC1)c1cc(C2CC2)c(OCC23CC4CC(CC(C4)C2)C3)cc1F [US8952169, 154] | 2.2 | 160 |
| O=C(NS(=O)(=O)N1CCOCC1)c1cc(C2CC2)c(OCC23CC4CC(CC(C4)C2)C3)cc1F [US8952169, 155] | 2.3 |  |
| CS(=O)(=O)NC(=O)c1cc(C2CC2)c(OCC2CN(C(c3ccccc3)c3ccccc3)C2)cc1F [US8952169, 440] | 5.5 | 23 |
| CS(=O)(=O)NC(=O)c1cc(C2CC2)c(OCC2CCN(Cc3ccc(Cl)cc3)CC2)cc1F [US9546164, 104] | 22 | 42 |
| CS(=O)(=O)NC(=O)c1cc(C2CC2)c(OCC2CCN(Cc3ccc(OC(F)(F)F)cc3)CC2)cc1F [US9546164, 135] | 7.7 | 31 |
| CS(=O)(=O)NC(=O)c1cc(C2CC2)c(OCC2CCN(Cc3cc(Cl)cc(Cl)c3)CC2)cc1F [US9546164, 139] | 2.4 | 120 |
| CC(C)(c1cc(Cl)cc(Cl)c1)N1CCC(COc2cc(F)c(C(=O)NS(C)(=O)=O)cc2C2CC2)CC1 [US9546164, 209] | 0.8 | 26 |
| CS(=O)(=O)NC(=O)c1cc(C2CC2)c(OCC2CCN(C(=O)c3cc(Cl)cc(Cl)c3)CC2)cc1F [US9546164, 253] | 9.8 | 34 |
